Data taken from patent US20030059956A1, “Method to follow progression of kidney disease” (priority 2001, published 2003).

System: urinary TGF-β1
Assay: Urinary TGF-β1 excretion in proteinuric patients, add-on losartan crossover trial on background lisinopril
Format: in vivo, human
Details: add-on losartan 50 mg/d for 4 weeks on lisinopril 40 mg/d
Description: Patients previously administered angiotensin-receptor blockers (ARBs) or with estimated creatinine clearances of less than 30 mumin were excluded. A separate group of 12 healthy volunteers with normal BP, normal albuminuria, and no history of kidney disease or diabetes served as the control group for urinary TGF-β1 levels.
The study was a two-period, crossover, randomized, controlled trial. Seventeen (17) patients were administered a sequence of either losartan, 50 mg/d, for 4 weeks, 2-week washout, and placebo for 4 weeks or placebo for 4 weeks, 2-week washout, and losartan, 50 mg/d, for 4 weeks. […] Twenty-four-hour urine was collected for protein, sodium, urea, creatinine, and urinary TGF-β1 measurement. Because standard therapy for patients with proteinuria and renal failure includes ACE inhibitors, ACE inhibitor therapy was not discontinued in any patient enrolled in the study.
Appropriate corrections for concentrations were made and values were expressed as TGF-β1 in picograms per milligram of creatinine. […] TGF-β expressed as TGF-β in picograms per milligram of creatinine was calculated as follows:
The normality assumption was tested with the Kolmogrov Smirnov statistic, and homogeneity of variances was tested using Lavene's test. […] Data were analyzed by two-way mixed-model analysis of variance with subjects as the random variable and drug or placebo assignment as the fixed variable. […]

SMILES: CCCCc1nc(Cl)c(CO)n1Cc1ccc(-c2ccccc2-c2nn[nH]n2)cc1 [losartan]
- reduction in urinary TGF-β1 levels (95% CI 16 to 55, P=0.017): 38%
- urinary TGF-β1 level after losartan (geometric mean, pre-losartan level 13.3 (95% CI 11.4 to 15.5)): 8.2 pg/mg creatinine
